Data set [1] can be described thus: Maximum wavelength of formed pigment. In kind it is physicochemical. As to the method:
50 μl of 1 mM each free compound was added to 3 ml of 0.1M phosphate buffer containing 0.5 mg/ml EMSE and 1 U/ml laccase and the mixture was incubated at 37° C. for 5 minutes. The absorption of the reaction solution at λmax was measured. As a control, 5-aminosalicylic acid was used and the reaction of the compound with 2,6-xylenol was carried out in the presence of metaperiodate under strong alkaline conditions.

The nature of the next data set: Stability of pigment. In kind it is physicochemical.
The target in data set [2] is T1, γ-glutamyltranspeptidase (γ-GTP) (Homo sapiens, UniProt P19440).
T1 construct: from tissue; host or cells: serum
T1 sequence (P19440 1-380 limits assumed): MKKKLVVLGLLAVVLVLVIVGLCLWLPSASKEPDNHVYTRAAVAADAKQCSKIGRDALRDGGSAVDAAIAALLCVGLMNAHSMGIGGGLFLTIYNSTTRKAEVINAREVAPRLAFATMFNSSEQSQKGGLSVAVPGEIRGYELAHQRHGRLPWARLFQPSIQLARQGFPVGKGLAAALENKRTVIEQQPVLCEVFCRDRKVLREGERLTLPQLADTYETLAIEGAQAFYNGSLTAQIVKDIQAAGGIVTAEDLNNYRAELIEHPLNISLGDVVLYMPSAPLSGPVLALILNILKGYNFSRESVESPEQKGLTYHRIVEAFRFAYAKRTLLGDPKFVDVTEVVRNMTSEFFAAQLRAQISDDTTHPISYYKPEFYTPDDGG
T1 sequence (P19440 381-569 limits assumed): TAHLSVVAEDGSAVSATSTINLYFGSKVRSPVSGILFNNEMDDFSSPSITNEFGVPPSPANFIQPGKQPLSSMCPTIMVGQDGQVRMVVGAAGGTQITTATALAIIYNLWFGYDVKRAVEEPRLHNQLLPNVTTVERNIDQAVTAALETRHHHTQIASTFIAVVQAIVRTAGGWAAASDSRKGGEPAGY
In words: γ-GTP determination in serum (Example 3). The conditions noted are these: found with the compound as substrate; standard serum 235 mU/ml; 37° C., 5 minutes; wavelength of Table 2. The data set is classed as biochemical. Here is the method: In this example, 500 mg of compound Nos. 1, 3, 5, 7 and 9 each and 500 mg of glycylglycine were dissolved in 100 ml (pH=7.7) and 0.1M phosphate buffer. The resultant solutions were designated A-1, A-3, A-5, A-7 and A-9, respectively. 50 mg of 3-{N-(m-tolyl)-N-ethyl}amino-2-hydroxypropane sulfonic acid was dissolved in 100 ml of phosphate buffer solution to obtain solution B. 50 mg/ml sodium meta-periodate containing 1N-HCl solution was prepared as solution C.
6 ml of solution A-1, A-3, A-5, A-7 or A-9 was equally poured to 3 test tubes. The samples were incubated at 37° C. and to the solution was added […] of (a) serum sample (b) standard serum or (c) water. The mixtures were stirred and heated for 5 minutes. After 5 minutes had passed, 1 ml of solution B and 1 ml of solution C were added to each of the mixtures and the mixtures were incubated for 10 minutes after stirring. As the standard serum, a serum having 235 mU/ml of γ-GTP was used.
The γ-GTP activity of the serum sample can be calculated by the following equation. [formula]

Another data set is described as follows: Solubility of substrate. In kind it is physicochemical. As to conditions: read-out: S: Solubility.
For data set [3], the system named is leucine aminopeptidase (LAP). In words: LAP determination in serum, end-point colour reactions (Example 2). In kind it is biochemical. Here is the method: The reagent solution wherein laccase was excluded from the reagent solution of Example 1 was used.
3 ml of the reagent solution was incubated at 37° C. for 10 minutes and to the mixture was added 0.05 ml of a serum sample. The mixture was immediately stirred and incubated at 37° C. for 10 minutes. After ten minutes passed,
(a) 0.03 ml of 10 mg/ml α-naphthol methanol solution and 0.1 ml of 1N-NaOH solution containing 50 mg/ml sodium salt of meta-periodate were added to the solution. The mixture was incubated at 37° C. for 10 minutes and the absorption of the reaction solution at 600 nm was measured.
(b) 1 ml of 10 mg/ml p-N,N-dimethylamino cinnamaldehyde ethanol solution and 1 ml of 0.4N-HCl solution were added to the solution and the mixture was incubated at 37° C. for 10 minutes. The absorption of the reaction solution at 570 nm was measured.
(c) 0.5 ml of 1N-HCl and 0.5 ml of 1 mg/ml sodium nitrite were added to the solution and the mixture was incubated at 37° C. for 10 minutes. Then 0.1 ml of 1 mg/ml 3,5-xylenol ethanol solution was added thereto and the absorption of the reaction solution at 650 nm was measured.

The subject of data set [4] is leucine aminopeptidase (LAP). Briefly: LAP determination in serum, absorption change per minute (Example 1). In kind it is biochemical. Here is the method:
3 ml of the reagent solution was incubated at 37° C. for ten minutes. To the solution was added 0.05 ml of a serum sample and the mixture was immediately stirred and the change in absorption of the solution at 745 nm was measured for one minute.
LAP activity in the sample can be calculated using the following equation: [formula] ΔE means the amount of absorption change per minute.
The same procedures as described above were repeated except that the following materials were used. […]

The values below come from patent US4877727A, “Substrate for determining leucine aminopeptidase or gamma-glutamyltranspeptase activity” (Kyowa Medex Co., Ltd., priority 1984, dated 1989).

≈ marks a conversion by molar mass, not a printed value. Some results are limits rather than exact numbers.

A word on the solubility: it is how much of the substance goes into solution per volume.

Regarding `N[C@@H](CCC(=O)Nc1ccc(N(CCCS(=O)(=O)O)CCCS(=O)(=O)O)c(S(=O)(=O)O)c1)C(=O)O` [compound 7], the “λmax: Maximum wavelength” value in data set [1] came to 680 nm. The “ST: Stability of pigment” value in the data set “Stability of pigment” was 93%. In data set [2], the “γ-GTP activity of the serum sample” value was found to be 240 mU/ml. In “Solubility of substrate”, the solubility is more than 20 mg/mL.

As to `N[C@@H](CCC(=O)Nc1ccc(N(CCCS(=O)(=O)O)CCCS(=O)(=O)O)cc1)C(=O)O` [compound 1], the “λmax: Maximum wavelength” value in data set [1] turned out to be 745 nm. In addition, the “ST: Stability of pigment” value in “Stability of pigment” is more than 98%. Moreover, the “γ-GTP activity of the serum sample” value in data set [2] came out at 231 mU/ml. The solubility in “Solubility of substrate” was more than 200 mg/mL.

`N[C@@H](CCC(=O)Nc1ccc(N(CCCS(=O)(=O)O)CCCS(=O)(=O)O)c(Cl)c1)C(=O)O` [compound 9]: the “λmax: Maximum wavelength” value in data set [1] is recorded as 685 nm. Besides, in the data set “Stability of pigment”, the “ST: Stability of pigment” value is reported as more than 98%. In data set [2], the “γ-GTP activity of the serum sample” value stood at 242 mU/ml. Further, in the data set “Solubility of substrate”, the solubility was more than 200 mg/mL.

In the case of `CN(CCCS(=O)(=O)O)c1ccc(NC(=O)CC[C@H](N)C(=O)O)cc1` [compound 3], the “λmax: Maximum wavelength” value in data set [1] is reported as 750 nm. Also, in the data set “Stability of pigment”, the “ST: Stability of pigment” value was more than 96%. In data set [2], the “γ-GTP activity of the serum sample” value is 228 mU/ml. Besides, the solubility in “Solubility of substrate” came to 80 mg/mL (≈ 214 mM).

For the compound `CC(C)C[C@H](N)C(=O)Nc1ccc(N(CCCS(=O)(=O)O)CCCS(=O)(=O)O)cc1` [Compound No. 2, L-leucyl-p-N,N-disulfopropyl aminoanilide], the “λmax: Maximum wavelength” value in data set [1] turned out to be 745 nm. In “Stability of pigment”, the “ST: Stability of pigment” value is given as more than 98%. The Ratio of sensitivity in data set [3] (Example 1 method (EMSE + laccase, 745 nm), reference) is on record as 100; in data set [3] (method (a), relative to Example 1 = 100), 73; in data set [3] (method (b), relative to Example 1 = 100), 85; in data set [3] (method (c), relative to Example 1 = 100), 61. In addition, the “absorption of the reaction solution” value stood at 0.331 in data set [3] (method (a) α-naphthol + meta-periodate/NaOH, 600 nm, Serum 1); 0.291 in data set [3] (method (a), 600 nm, Serum 2); 0.389 in data set [3] (method (a), 600 nm, Serum 3); 0.395 in data set [3] (method (a), 600 nm, Serum 4); 0.277 in data set [3] (method (a), 600 nm, Serum 5); 0.322 in data set [3] (method (a), 600 nm, Serum 6). Moreover, the “absorption of the reaction solution” value in data set [3] (method (a), 600 nm, Serum 7) is 0.291; in data set [3] (method (a), 600 nm, Serum 8) it was 0.386; in data set [3] (method (a), 600 nm, Serum 9) it was 0.392; in data set [3] (method (a), 600 nm, Serum 10) it was 0.346; in data set [3] (method (b) p-N,N-dimethylamino cinnamaldehyde/HCl, 570 nm, Serum 1), 0.386; in data set [3] (method (b), 570 nm, Serum 2) it was 0.336. Also, the “absorption of the reaction solution” value is listed as 0.466 in data set [3] (method (b), 570 nm, Serum 3); 0.460 in data set [3] (method (b), 570 nm, Serum 4); 0.320 in data set [3] (method (b), 570 nm, Serum 5); 0.372 in data set [3] (method (b), 570 nm, Serum 6); 0.333 in data set [3] (method (b), 570 nm, Serum 7); 0.453 in data set [3] (method (b), 570 nm, Serum 8). Moreover, the “absorption of the reaction solution” value was 0.460 in data set [3] (method (b), 570 nm, Serum 9); 0.405 in data set [3] (method (b), 570 nm, Serum 10); 0.277 in data set [3] (method (c) sodium nitrite/HCl then 3,5-xylenol, 650 nm, Serum 1); 0.241 in data set [3] (method (c), 650 nm, Serum 2); 0.330 in data set [3] (method (c), 650 nm, Serum 3); 0.325 in data set [3] (method (c), 650 nm, Serum 4). For the same compound, the “absorption of the reaction solution” value is 0.230 in data set [3] (method (c), 650 nm, Serum 5); 0.270 in data set [3] (method (c), 650 nm, Serum 6); 0.244 in data set [3] (method (c), 650 nm, Serum 7); 0.325 in data set [3] (method (c), 650 nm, Serum 8); 0.331 in data set [3] (method (c), 650 nm, Serum 9); 0.292 in data set [3] (method (c), 650 nm, Serum 10). Also, the solubility in “Solubility of substrate” was found to be 130 mg/mL (≈ 279 mM). Moreover, the “amount of absorption change per minute” value in data set [4] (Serum (2), same wavelengths) came out at 0.0395; in data set [4] (Serum (3), same wavelengths) it was 0.0543; in data set [4] (Serum (4), same wavelengths), 0.0541; in data set [4] (Serum (5), same wavelengths), 0.0382; in data set [4] (Serum (6), same wavelengths), 0.0437; in data set [4] (Serum (7), same wavelengths), 0.0400. The “amount of absorption change per minute” value in data set [4] (Serum (8), same wavelengths) is listed as 0.0532; in data set [4] (Serum (9), same wavelengths) it was 0.0537; in data set [4] (Serum (10), same wavelengths) it was 0.0476; in data set [4] (Serum(1), 37° C., 745 nm Compound No. 2, 635 nm (a), 565 nm (b), 675 nm (c)), 0.0454.

As for `CCN(CC(O)CS(=O)(=O)O)c1ccc(NC(=O)CC[C@H](N)C(=O)O)cc1` (stereo partly shown) [compound 5], the “λmax: Maximum wavelength” value in data set [1] is 740 nm. The “ST: Stability of pigment” value in the data set “Stability of pigment” is on record as more than 98%. Further, in data set [2], the “γ-GTP activity of the serum sample” value stood at 236 mU/ml. In the data set “Solubility of substrate”, the solubility worked out at 170 mg/mL (≈ 421 mM).
